From US7459477B2, “Substituted N-phenyl-phenoxy nicotinic acid-(thio)amides and their use as herbicides” (Nihon Nohyaku, Co., Ltd., priority 2001, dated 2008)

System: Diamond Back Moth (Plutella xylostella)
Test: Insecticidal effect on diamond back moth (Test Example 1);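 also: grades A 100% B 99-90% C 89-80% D 79-50% mortality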
Type: in vivo
Details: 500 ppm; Chinese cabbage seedling with eggs immersed about 30 seconds; six days after the immersion; 25° C.
Text: Insecticidal Effect on Diamond Back Moth (Plutella xylostella)
Adult diamond back moths were released and allowed to oviposit on a Chinese cabbage seedling. Two days after the release, the seedling having the eggs deposited thereon was immersed for about 30 seconds in a liquid chemical prepared by diluting a preparation containing each compound listed in Tables 1 to 4 as an active ingredient to adjust the concentration to 500 ppm. After air-dryness, it was allowed to stand in a room thermostatted at 25° C. Six days after the immersion, the hatched insects were counted. The mortality was calculated according to the following equation and the insecticidal effect was judged according to the criterion shown below. The test was carried out with triplicate groups of 10 insects.

| SMILES | insecticidal effect (mortality rating) |
| --- | --- |
| Cc1nn(C)c(Cl)c1C(=O)Nc1ccc(C(C(F)(F)F)C(F)(F)F)c2ccccc12 [1-17] | B or higher |
| Cc1nn(C)c(Cl)c1C(=O)Nc1ccc(C(C(F)(F)F)C(F)(F)F)cc1-c1ccccc1 [1-20] | B or higher |
| Cc1nn(C)c(Cl)c1C(=O)Nc1ccc(C(F)(C(F)(F)F)C(F)(F)F)cc1C(C)C(C)C (centres unmarked) [1-21] | B or higher |
| CC(C)CC(C)c1cc(C(F)(C(F)(F)F)C(F)(F)F)ccc1NC(=O)c1cn(C)nc1C(F)(F)F (centres unmarked) [1-28] | B or higher |
| CC(C)CC(C)c1cc(C(C(F)(F)F)C(F)(F)F)ccc1NC(=O)c1cn(C(F)F)nc1C(F)(F)F (centres unmarked) [1-33] | B or higher |
| CC(C)CC(C)c1cc(C(C(F)(F)F)C(F)(F)F)ccc1NC(=O)c1cnn(C)c1S(C)(=O)=O (centres unmarked) [1-48] | B or higher |
| CC(C)CC(C)c1cc(C(C(F)(F)F)C(F)(F)F)ccc1NC(=O)c1cnn(C)c1I (centres unmarked) [1-56] | B or higher |
| CCn1ncc(C(=O)Nc2ccc(C(C(F)(F)F)C(F)(F)F)cc2C(C)CC(C)C)c1I (centres unmarked) [1-57] | B or higher |
| Cc1nn(C)c(Cl)c1C(=O)Nc1ccc(C(F)(C(F)(F)F)C(F)(F)F)cc1C(C)CC(C)C (centres unmarked) [1-70] | B or higher |
| CCOC(c1ccc(NC(=O)c2c(C)nn(C)c2Cl)c(C(C)CC(C)C)c1)(C(F)(F)F)C(F)(F)F (centres unmarked) [1-73] | B or higher |
| Cc1nn(C)c(C)c1C(=O)Nc1ccc(C(C(F)(F)F)C(F)(F)F)cc1C(C)CC(C)C (centres unmarked) [1-107] | B or higher |
| Cc1nn(C)c(Cl)c1C(=O)Nc1ccc(C(F)(C(F)(F)F)C(F)(F)F)cc1C(C)CCC(C)C (centres unmarked) [1-145] | B or higher |
| Cc1nn(C)c(C)c1C(=O)Nc1ccc(C(F)(C(F)(F)F)C(F)(F)F)c(C)c1C [1-163] | B or higher |
| Cc1nn(C)c(C)c1C(=O)Nc1ccc(C(C(F)(F)F)C(F)(F)F)c(C)c1C [1-164] | B or higher |
| CC(C)CC(C)c1cc(C(C(F)(F)F)C(F)(F)F)ccc1NC(=O)c1ncc(Cl)cc1Cl (centres unmarked) [3-2] | B or higher |
| CC(C)CC(C)c1cc(C(C(F)(F)F)C(F)(F)F)ccc1NC(=O)c1cnccc1C(F)(F)F (centres unmarked) [3-3] | B or higher |
| CC(C)CC(C)c1cc(C(C(F)(F)F)C(F)(F)F)ccc1NC(=O)c1cccnc1Cl (centres unmarked) [3-4] | B or higher |
| Cc1nnsc1C(=O)Nc1ccc(C(F)(C(F)(F)F)C(F)(F)F)cc1C(C)CC(C)C (centres unmarked) [3-10] | B or higher |
| Cc1nn(C)c(C(=O)Nc2ccc(C(C(F)(F)F)C(F)(F)F)cc2C(C)CC(C)C)c1Cl (centres unmarked) [4-4] | B or higher |
| Cc1nn(C)c(C(=O)Nc2ccc(C(C(F)(F)F)C(F)(F)F)cc2C(C)CC(C)C)c1Br (centres unmarked) [4-5] | B or higher |
| Cc1nn(C)c(Cl)c1C(=O)Nc1ccc(C(C(F)(F)F)C(F)(F)F)cc1C(C)(C)C [Compound No. 1-10] | B or higher |
| Cc1nn(C)c(Cl)c1C(=O)Nc1ccc(C(C(F)(F)F)C(F)(F)F)c2c1CCCC2 [Compound No. 1-14] | B or higher |
| COC(c1ccc(NC(=O)c2c(C)nn(C)c2C)c(C(C)CC(C)C)c1)(C(F)(F)F)C(F)(F)F (centres unmarked) [Compound No. 1-108, N-{2-(1,3-dimethylbutyl)-4-[1-methoxy-2,2,2-trifluoro-1-(trifluoromethyl)ethyl]-phenyl}-1,3,5-trimethylpyrazole-4-carboxamide] | B or higher |
